According to patent US10722442B2, “Skin brightening composition comprising novel ginsenoside” (AMOREPACIFIC CORPORATION, priority 2018, dated 2020):

Tests used:
[1] = biological target: Mushroom-derived tyrosinase; assay: Inhibitory effect of tyrosinase activity; assay type: biochemical; conditions: L-tyrosine substrate, 20 minutes at 37° C., absorbance at 490 nm
Experimental: In order to compare the skin brightening effects of ginsenosides isolated from the ginseng seed extract, the inhibitory effect of the tyrosinase activity was evaluated as follows. Mushroom-derived tyrosinase and tyrosine were obtained from Sigma Chemical. […] Tyrosinase activity was assessed by measuring the absorbance at 490 nm using a microplate reader (Bio-Rad 3550, Richmond, Calif., U.S.A.) after an enzyme reaction for 20 minutes at 37° C.

Mel-Ab cell line = assay: Melanin production inhibition (Dooley's method); assay type: cell-based, C57BL/6; conditions: Mel-Ab cells, after 5 days, absorbance at 400 nm

Row | SMILES | IC50 (ppm), inhibitory effect of tyrosinase activity [1] [ppm] | IC50 (ppm), concentration required to reduce melanin production in melanocytes by half (Mel-Ab cell line) [ppm]
1 | OC[C@H]1O[C@@H](Oc2ccc(O)cc2)[C@H](O)[C@@H](O)[C@@H]1O [Arbutin, arbutin] | 149 | 
2 | CC(C)=CCC[C@](C)(O[C@@H]1O[C@H](CO)[C@@H](O)[C@H](O)[C@H]1O)[C@H]1CC[C@]2(C)[C@@H]1[C@H](O)C[C@@H]1[C@@]3(C)CC[C@H](O)C(C)(C)[C@@H]3[C@@H](O[C@@H]3O[C@H](CO)[C@@H](O)[C@H](O)[C@H]3O)C[C@]12C [GS#01, ginsenoside Rg1] | 23 | 37
3 | CC(C)=CCC[C@](C)(O)[C@H]1CC[C@]2(C)[C@@H]1[C@H](O)C[C@@H]1[C@@]3(C)CC[C@H](O)C(C)(C)[C@@H]3[C@@H](O[C@@H]3O[C@H](CO)[C@@H](O)[C@H](O)[C@H]3O[C@@H]3O[C@@H](C)[C@H](O)[C@@H](O)[C@H]3O)C[C@]12C [GS#02, ginsenoside Rg2] | 30 | 35
4 | CC(C)=CCC[C@](C)(O[C@@H]1O[C@H](CO)[C@@H](O)[C@H](O)[C@H]1O)[C@H]1CC[C@]2(C)[C@@H]1[C@H](O)C[C@@H]1[C@@]3(C)CC[C@H](O)C(C)(C)[C@@H]3[C@@H](O[C@@H]3O[C@H](CO)[C@@H](O)[C@H](O)[C@H]3O[C@@H]3O[C@@H](C)[C@H](O)[C@@H](O)[C@H]3O)C[C@]12C [GS#03, ginsenoside Re] | 27 | 39
5 | CC(C)=CCC[C@](C)(O[C@@H]1O[C@H](CO)[C@@H](O)[C@H](O)[C@H]1O)[C@H]1CC[C@]2(C)[C@@H]1[C@H](O)C[C@@H]1[C@@]3(C)CC[C@H](O[C@@H]4O[C@H](CO)[C@@H](O)[C@H](O)[C@H]4O[C@@H]4O[C@H](CO)[C@@H](O)[C@H](O)[C@H]4O)C(C)(C)[C@@H]3CC[C@]12C [GS#04, ginsenoside Rd] | 31 | 38
6 | CC(C)=CCC[C@](C)(O[C@@H]1O[C@H](CO[C@@H]2O[C@H](CO)[C@@H](O)[C@H](O)[C@H]2O)[C@@H](O)[C@H](O)[C@H]1O)[C@H]1CC[C@]2(C)[C@@H]1[C@H](O)C[C@@H]1[C@@]3(C)CC[C@H](O[C@@H]4O[C@H](CO)[C@@H](O)[C@H](O)[C@H]4O[C@@H]4O[C@H](CO)[C@@H](O)[C@H](O)[C@H]4O)C(C)(C)[C@@H]3CC[C@]12C [GS#05, ginsenoside Rb1] | 47 | 57
7 | CC(C)=CCC[C@](C)(O[C@@H]1O[C@H](CO[C@@H]2OC[C@H](O)[C@H](O)[C@H]2O)[C@@H](O)[C@H](O)[C@H]1O)[C@H]1CC[C@]2(C)[C@@H]1[C@H](O)C[C@@H]1[C@@]3(C)CC[C@H](O[C@@H]4O[C@H](CO)[C@@H](O)[C@H](O)[C@H]4O[C@@H]4O[C@H](CO)[C@@H](O)[C@H](O)[C@H]4O)C(C)(C)[C@@H]3CC[C@]12C [GS#06, ginsenoside Rb2] | 53 | 54
8 | O=c1cc(CO)occ1O [Kojic acid, kojic acid] |  | 39
